The values that follow come from patent US12304813B2, “Sodium thiosulfate-containing pharmaceutical compositions” (Hope Medical Enterprises, Inc., priority 2009, dated 2025).

The conditions of data set [1]: Example 1 batch. The protocol: In another embodiment, the sodium thiosulfate provided herein has a pH between about 6 to about 8 when measured in a 10% solution at 25° C. In certain embodiments, the pH of the sodium provided herein is measured using a pH meter. In certain embodiments, the pH of the sodium thiosulfate provided herein is determined according to Method 791 in USP XXXII (2009).

A further data set deals with vascular calcification. The following applies: literature report, Kidney International 2008; cited from earlier work.
Data set [2] relates to platinum-induced ototoxicity. Conditions: associated with platinum-containing chemotherapeutic agents; Current Opinions in Oncology 1995; cited from earlier work.
The next data set deals with calciphylaxis. The following applies: literature report, Archives of Dermatology 2007; cited from earlier work.
In data set [3] the test system is platinum-induced nephrotoxicity. The following applies: associated with platinum-containing chemotherapeutic agents; Current Opinions in Oncology 1995; cited from earlier work.

Turning to `O.O.O.O.O.O=S([O-])([O-])=S.[Na+].[Na+]` [sodium thiosulfate pentahydrate], the “pH of 10% solution at 25° C.” value in data set [1] came to 6.6. The “treatment for vascular calcification” value in the data set with vascular calcification is “effective treatment”. For the same compound, the “treatment to prevent platinum-induced ototoxicity” value in data set [2] was “effective treatment”. Besides, in the data set with calciphylaxis, the treatment for calciphylaxis entry was “effective treatment”. Moreover, the “treatment to prevent platinum-induced nephrotoxicity” value in data set [3] is “effective treatment”.
